We go through 2 substances from patent US20260116944A1, “NOVEL TRIPLE GLP-1/GIP/GLUCAGON RECEPTOR AGONIST AND A PHARMACEUTICAL COMPOSITION FOR PREVENTING OR TREATING OBESITY COMPRISING THE SAME” (HANMI PHARM. CO., LTD., priority 2022, published 2026).

The nature of the test: Weight loss effect in AMLN diet-induced obese mice. The test is classed as in vivo. The following applies: 351 ug/kg, Q2D, subcutaneously, 2 weeks, vs. excipient control, p<0.001 one-way ANOVA, FIG. 1. Here is the method:
In order to confirm the weight loss effect of each of the three triple agonists of SEQ ID NO: 1, SEQ ID NO: 2, and SEQ ID NO: 4 prepared in the Example above, an AMLN (amylin) mouse model, known as an obesity model, was used. AMLN diet-induced mice were divided into an excipient control group and groups administered with three types of triple agonists (351 ug/kg, Q2D, subcutaneously), and the administration was repeated for 2 weeks.
After repeated administration for 2 weeks, the body weight was measured, and the change in body weight relative to the body weight immediately before administration (DO) was measured to evaluate weight loss effect.

*1 amine or outer side, *2 acyl side, *3 side chain or, on linkers, in order; H or OH if unused. Bridges are numbered along the chain shown (N, C = ends). Where no end group is shown, it is not given here. Side-chain parts run from the residue outwards. [ ]: non-standard residue; d: D form. The star is where a group is joined. C20 diacid = O=C(O)CCCCCCCCCCCCCCCCCCC(=O)*; γGlu = O=C(O)[C@H](CCC(=O)[*:2])N[*:1]; AEEA = NCCOCCOCC(=O)O; Aib = CC(C)(N)C(=O)O

As to “Y-Aib-QGTFTSDYSK(1)YLDEKRAKDFVQWLLDHHPSSGQPPPS (Y[Aib]QGTFTSDYSK([AEEA-AEEA-γGlu-C20 diacid])YLDEKRAKDFVQWLLDHHPSSGQPPPS-NH2; lactam 16-20; N-terminus assumed; SMILES CC(C)C[C@H](NC(=O)[C@H](Cc1ccc(O)cc1)NC(=O)[C@H](CCCCNC(=O)COCCOCCNC(=O)COCCOCCNC(=O)CC[C@H](NC(=O)CCCCCCCCCCCCCCCCCCC(=O)O)C(=O)O)NC(=O)[C@H](CO)NC(=O)[C@H](Cc1ccc(O)cc1)NC(=O)[C@H](CC(=O)O)NC(=O)[C@H](CO)NC(=O)[C@@H](NC(=O)[C@H](Cc1ccccc1)NC(=O)[C@@H](NC(=O)CNC(=O)[C@H](CCC(N)=O)NC(=O)C(C)(C)NC(=O)[C@@H](N)Cc1ccc(O)cc1)[C@@H](C)O)[C@@H](C)O)C(=O)N[C@@H](CC(=O)O)C(=O)N[C@H]1CCC(=O)NCCCC[C@@H](C(=O)N[C@@H](CC(=O)O)C(=O)N[C@@H](Cc2ccccc2)C(=O)N[C@H](C(=O)N[C@@H](CCC(N)=O)C(=O)N[C@@H](Cc2c[nH]c3ccccc23)C(=O)N[C@@H](CC(C)C)C(=O)N[C@@H](CC(C)C)C(=O)N[C@@H](CC(=O)O)C(=O)N[C@@H](Cc2c[nH]cn2)C(=O)N[C@@H](Cc2c[nH]cn2)C(=O)N2CCC[C@H]2C(=O)N[C@@H](CO)C(=O)N[C@@H](CO)C(=O)NCC(=O)N[C@@H](CCC(N)=O)C(=O)N2CCC[C@H]2C(=O)N2CCC[C@H]2C(=O)N2CCC[C@H]2C(=O)N[C@@H](CO)C(N)=O)C(C)C)NC(=O)[C@H](C)NC(=O)[C@H](CCCNC(=N)N)NC(=O)[C@H](CCCCN)NC1=O) [SEQ ID NO: 4, acylated triple agonist peptide, K(1) at position 12, lactam bridge E16-K20]”, the “weight loss efficacy (change in body weight relative to immediately before administration)” value is on record as “significant weight loss efficacy”.

Regarding “Y-Aib-QGTFTSDYSK(1)YLDEKRAKEFVQWLLDHHPSSGQPPPS (Y[Aib]QGTFTSDYSK([AEEA-AEEA-γGlu-C20 diacid])YLDEKRAKEFVQWLLDHHPSSGQPPPS-NH2; lactam 16-20; N-terminus assumed; SMILES CC(C)C[C@H](NC(=O)[C@H](Cc1ccc(O)cc1)NC(=O)[C@H](CCCCNC(=O)COCCOCCNC(=O)COCCOCCNC(=O)CC[C@H](NC(=O)CCCCCCCCCCCCCCCCCCC(=O)O)C(=O)O)NC(=O)[C@H](CO)NC(=O)[C@H](Cc1ccc(O)cc1)NC(=O)[C@H](CC(=O)O)NC(=O)[C@H](CO)NC(=O)[C@@H](NC(=O)[C@H](Cc1ccccc1)NC(=O)[C@@H](NC(=O)CNC(=O)[C@H](CCC(N)=O)NC(=O)C(C)(C)NC(=O)[C@@H](N)Cc1ccc(O)cc1)[C@@H](C)O)[C@@H](C)O)C(=O)N[C@@H](CC(=O)O)C(=O)N[C@H]1CCC(=O)NCCCC[C@@H](C(=O)N[C@@H](CCC(=O)O)C(=O)N[C@@H](Cc2ccccc2)C(=O)N[C@H](C(=O)N[C@@H](CCC(N)=O)C(=O)N[C@@H](Cc2c[nH]c3ccccc23)C(=O)N[C@@H](CC(C)C)C(=O)N[C@@H](CC(C)C)C(=O)N[C@@H](CC(=O)O)C(=O)N[C@@H](Cc2c[nH]cn2)C(=O)N[C@@H](Cc2c[nH]cn2)C(=O)N2CCC[C@H]2C(=O)N[C@@H](CO)C(=O)N[C@@H](CO)C(=O)NCC(=O)N[C@@H](CCC(N)=O)C(=O)N2CCC[C@H]2C(=O)N2CCC[C@H]2C(=O)N2CCC[C@H]2C(=O)N[C@@H](CO)C(N)=O)C(C)C)NC(=O)[C@H](C)NC(=O)[C@H](CCCNC(=N)N)NC(=O)[C@H](CCCCN)NC1=O) [SEQ ID NO: 2, acylated triple agonist peptide, K(1) at position 12, lactam bridge E16-K20]”, the “weight loss efficacy (change in body weight relative to immediately before administration)” value is reported as “significant weight loss efficacy”.
